From patent US20240369539A1, “AN ADHERENT CELL CULTURE METHOD FOR GENERATING TIGHT JUNCTION BETWEEN CELLS AND ITS PRODUCT APPLICATION” (ZHEJIANG UNIVERSITY, priority 2021, published 2024)

What was measured:
[1] = system: in vitro blood-brain barrier model (membranous cell sheet formed by endothelial cells)
[2] = system: in vitro blood-brain barrier model (membranous cell sheet formed by endothelial cells); assay: test of a blood-brain barrier toxic drug on the in vitro blood-brain barrier model; details: FIG. 20
Method: A test of a blood-brain barrier toxic drug is carried out to determine the response of the blood-brain barrier model constructed in the embodiment to the blood-brain barrier toxic drug.

SMILES	content detected in the lower chamber [1]	barrier function of the blood-brain barrier model ([2]; after self-recovery for 24 hours following drug treatment)	barrier function of the blood-brain barrier model ([2]; after treatment with the blood-brain barrier toxic drug)
N[C@@H](Cc1ccc(O)c(O)c1)C(=O)O [L-dopamine]	significantly higher than that of the dopamine		
NCCc1ccc(O)c(O)c1 [dopamine]	the content of the L-dopamine detected in the lower chamber is significantly higher than that of the dopamine		
CN[C@@H](C)Cc1ccccc1 [methamphetamine]		significantly improved	significantly reduced
